Results taken from paper PMC12113707, “Microwave Assisted Synthesis of Antioxidant Dihydro-Pyrazole Hybrids as Possible Lipoxygenase Inhibitors” (Molecules, 2025).

Key:
[1] = Inhibition of AAPH-induced linoleic acid peroxidation; settings: 37 °C, 234 nm
Description: The ability of the compounds to inhibit AAPH-induced peroxidation of linoleic acid is another assay to investigate the antioxidant properties of the compounds. Azo compounds such as 2,2′-azobis dihydrochloride (2-amidinopropane) (AAPH) are capable of generating free radicals through spontaneous decomposition at 37 °C. The R- radicals react immediately with air-oxygen to produce peroxy radicals. AAPH was therefore used as the radical initiator and sodium linoleate as substrate subjected to peroxidation. Measurements were carried out at 234 nm using a UV/V is spectrophotometer. Dichalcone 1i substituted with two phenyl groups presents the lowest lipophilicity. […] Therefore, hydrophilic substituents offer an increase in activity.
The interaction of free radicals with cell membrane lipids induces free radical chain reactions, a process called lipid peroxidation. 930 μL of a phosphate buffer solution (0.05 M, pH = 7.4), 10 μL of the sodium linolate solution (16 mM in a buffer solution of Tris-HCl pH = 9) and 10 μL of the tested compounds (stock solutions 100 μΜ) were mixed and the oxidative procedure started after the addition of 50 μL AAPH at 37 °C under air conditions. The conjugated diene’s absorbance was measured at 234 nm at a thermostable spectrophotometer (37 °C) according to previous publication.

[2] = Interaction with the stable free radical DPPH (reducing activity); settings: 517 nm
Description: In general, the compounds present moderate to good antioxidant activity. It seems that the dibenzylacetones present satisfactory antioxidant activity compared to the hybrids at 60 min (1b, 1d and 1f).
The tested compounds (0.1 mM final concentration) dissolved in DMSO were incubated with a solution of DPPH in absolute ethanol in absence of light. The absorbance at 20 and 60 min at 517 nm was recorded at room temperature. NDGA was used as the reference compound.

[3] = molecular target: T1, soybean lipoxygenase (SLOX-1) (Glycine max, UniProt P08170); assay: Inhibition of soybean lipoxygenase in vitro; assay type: biochemical; settings: pH 9, sodium linoleate substrate; for inhibition at 100 µM: read-out: LOX% Inhibition, 100 μM (±SD); for IC50: read-out: LOX IC50 (μM) (±SD)
T1 construct: 200 μL of plant-derived lipoxygenase solution (1:9 × 10^−4 w/v, in saline); purchased Sigma Chemical, Co; host or cells: soybean (plant-derived)
T1 sequence (P08170 1-839): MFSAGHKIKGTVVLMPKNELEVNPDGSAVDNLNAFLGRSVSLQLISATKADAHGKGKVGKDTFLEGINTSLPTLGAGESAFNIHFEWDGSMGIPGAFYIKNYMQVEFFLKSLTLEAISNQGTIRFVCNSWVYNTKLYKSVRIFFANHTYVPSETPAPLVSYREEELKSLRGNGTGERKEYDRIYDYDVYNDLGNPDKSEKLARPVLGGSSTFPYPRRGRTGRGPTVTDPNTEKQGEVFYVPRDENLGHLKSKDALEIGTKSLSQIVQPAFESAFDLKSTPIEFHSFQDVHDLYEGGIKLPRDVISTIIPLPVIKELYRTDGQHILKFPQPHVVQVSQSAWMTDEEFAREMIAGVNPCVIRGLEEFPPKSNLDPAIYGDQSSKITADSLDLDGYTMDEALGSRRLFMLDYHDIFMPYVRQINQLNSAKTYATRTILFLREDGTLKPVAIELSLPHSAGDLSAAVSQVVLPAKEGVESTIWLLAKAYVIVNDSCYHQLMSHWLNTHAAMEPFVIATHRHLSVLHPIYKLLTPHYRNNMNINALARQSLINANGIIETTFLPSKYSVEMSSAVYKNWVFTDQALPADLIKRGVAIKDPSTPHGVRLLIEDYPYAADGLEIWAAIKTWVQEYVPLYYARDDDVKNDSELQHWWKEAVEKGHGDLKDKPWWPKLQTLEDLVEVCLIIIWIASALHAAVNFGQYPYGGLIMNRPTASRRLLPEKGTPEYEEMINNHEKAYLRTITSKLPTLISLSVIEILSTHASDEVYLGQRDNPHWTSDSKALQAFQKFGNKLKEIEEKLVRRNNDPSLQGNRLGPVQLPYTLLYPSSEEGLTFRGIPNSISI
Description: Soybean lipoxygenase SLOX-1 at pH 9 is used in vitro. During this assay linoleic acid sodium salt is converted to the corresponding 13-hydroperoxide. The reaction is recorded photometrically at 234 nm using the UV-based enzyme assay. […] It is known that soybean LOX inhibitory activity induced by NSAIDs is qualitatively quite similar to the inhibition observed on the rat mast cells LOX and this assay may be used as a qualitative or semi-quantitative screen for such activity.
To a quartz cell, add 790 μL of Tris-HCl pH = 9.0 buffer, 200 μL of plant-derived lipoxygenase solution (1:9 × 10^−4 w/v, in saline), 10 μL of the test compound solution and 100 μL of sodium linoleate solution (3 mM concentration). The absorbance was measured at 234 nm, where the change in absorbance due to the conversion of linoleic acid to […] was recorded. A solution of 790 μL of Tris-HCl pH = 9.0 buffer, 200 μL of a plant-derived lipoxygenase solution (1:9 × 10^−4 w/v, in saline), 10 μL of DMSO and 100 μL of sodium linoleate solution (3 mM concentration) was used as a control.

[4] = Experimental lipophilicity RM by reverse phase thin layer chromatography (RP-TLC); assay type: physicochemical; settings: methanol-water mobile phase
Description: Lipophilicity is a main physicochemical parameter for bioactive molecules, linking solubility, ligand-target binding interactions, membrane permeability absorption, distribution, bioavailability, metabolism, elimination and toxicological effects (ADMET), playing an important role in biological activity. The experimental values of lipophilicity RM were determined by reverse phase thin layer chromatography. For the experimental determination of lipophilicity the hydrophilic-lipid phase system is a mixture of methanol- water (90/10%). The theoretical lipophilicity values are determined by the Bioloom program (http://biobyte.com/bb/prod/bioloom.html, accessed on 8 April 2024) (Table 1). According to the calculated clog P values, the most lipophilic compounds are 3c, 3d and 3f while the less lipophilic ones are compounds 5a and 5b.
Melting points were determined on a MEL-Temp II (Lab. Devices, Holliston, MA, USA). In vitro tests were carried out using a UV-Vis spectra and recorded on a Perkin-Elmer 554 double-beam spectrophotometer (Perkin-Elmer Corporation Ltd., Lane Beaconsfield, Bucks, UK). Infrared spectra (KBr pellets) were recorded with Perkin-Elmer 597 spectrophotometer (Perkin-Elmer Corporation Ltd., Lane Beaconsfield, Bucks, UK). The ^1H […] Magnetic Resonance (^1H-NMR) spectra were acquired on an Agilent 500/54 (DD2) at 500 MHz in CDCl3 using tetramethylsilane as an internal standard. Agilent 500/54 (DD2) ^13C NMR spectra were acquired at 125 MHz in CDCl3 solutions with tetramethylsilane serving as an internal reference. Coupling constants J are expressed in Hz, and chemical shifts are reported in ppm. Thermo Fisher Scientific Inc., Waltham, MA, USA, used MeOH as the solvent to calculate mass spectra using an LC-PDA-MS Thermo Finnigan system (LC Pump Plus, Autosampler, Surveyor PDA Plus Detector) interfaced with an ESI MSQ Plus (Thermo Finnigan). Thin-layer chromatography using 5554 F254 Silica gel/TLC cards (Merck and Fluka Chemie GmbH Buchs, Steinheim, Switzerland) was used to monitor the reaction progress. Silica gel 60 F254 plates with a diameter of 2 mm were utilized for preparative thin layer chromatography (prep TLC) by Merck KgaA (ICH078057). Merck (20 × 20 cm) plates were used for the experimental assessment of the lipophilicity using reverse phase thin-layer chromatography (RP-TLC) TLC-Silica gel 60 F254 DC Kieselgel.
In this experiment, TLC silica gel 60 F254 1.05715.0001 commercial glass plates from Merck were used. The plates were first immersed in a 5% v/v solution of liquid paraffin in petroleum ether and left for 90 s to become completely impregnated with the stable lipophilic phase. They were then activated by standing for 30 min in an oven at 40 °C and kept there until the time of use. A 70% v/v MeOH/H2O mixture was used as the mobile phase. The mobile phase was saturated with a few drops of liquid paraffin before being used. The spots of the compounds were placed on the plate at a distance of 2 cm from the edges of the plate and also from each other. The development of the spots on the plates was carried out in closed chromatography chambers where the atmosphere is saturated with the mobile phase at room temperature. At the end of development, the solvent-formed front was marked and the plates are dried at 80 °C for about 20–30 min. The appearance of the spots was made under an ultraviolet light lamp. The Rf values were the average of 5–6 measurements for each compound and assuming that the compounds will have been rotated to different positions on the plates. The RM values were calculated from the corresponding Rf values according to the equation [67].RM = log [(1/Rf) − 1](1)

inhibition at 100 µM [3] | RM ± SD [4] | IC50 [3] | SMILES | AAPH% Inhibition, 100 μM (±SD) [1] | RA%, 100 μM, 60 min (±SD) [2] | RA%, 100 μM, 20 min (±SD) [2]
42 ± 2.4% | 1.00 ± 0.084 |  | C(=C\c1ccccc1)/C1=NN(c2ccccc2)C(c2ccccc2)C1 (stereo not shown) [Compound 2a, (E)-1,5-Diphenyl-3-styryl-4,5-dihydro-1H-pyrazole] | 44 ± 0.7% | 17 ± 1.2% | 
 | 0.85 ± 0.068 | 85 µM | N#Cc1ccc(N2N=C(/C=C/c3ccc(Cl)cc3)CC2c2ccc(Cl)cc2)cc1 (stereo not shown) [Compound 4d, (E)-4-(5-(4-chlorophenyl)-3-(4-chlorostyryl)-4,5-dihydro-1H-pyrazol-1-yl)-benzonitrile] | 51 ± 0.2% | 2 ± 0.1% | 23 ± 0.3%
 | 0.50 ± 0.043 | 80 µM | NC(=O)N1N=C(/C=C/c2ccc(Cl)cc2)CC1c1ccc(Cl)cc1 (stereo not shown) [Compound 5d, (E)-5-(4-chlorophenyl)-3-(4-chlorostyryl)-4,5-dihydro-1H-pyrazole-1-carboxamide] | 33 ± 0.5% | 34 ± 0.5% | 
38 ± 0.7% | 0.50 ± 0.042 |  | O=C(/C=C/c1ccc(Cl)cc1)/C=C/c1ccc(Cl)cc1 [Compound 1d, (1E,4E)-1,5-bis(4-chlorophenyl)-1,4-pentadien-3-one] | 53 ± 0.6% | 95 ± 4.8% | 86 ± 4.5%
39 ± 0.7% | 0.06 ± 0.004 |  | NC(=O)N1N=C(/C=C/c2ccc(F)cc2)CC1c1ccc(F)cc1 (stereo not shown) [Compound 5b, (E)-5-(4-fluorophenyl)-3-(4-fluorostyryl)-4,5-dihydro-1H-pyrazole-1-carboxamide] | 8 ± 0.2% |  | 19 ± 0.1%
11 ± 0.8% | 1.39 ± 0.069 |  | Clc1ccc(/C=C/C2=NN(c3ccc(Br)cc3)C(c3ccc(Cl)cc3)C2)cc1 (stereo not shown) [Compound 3d, (E)-1-(4-bromo-phenyl)-5-(4-chloro-phenyl)-3-(4-chlorostyryl)-4,5-dihydro-1H-pyrazole] | 52 ± 2.5% |  | 6 ± 0.5%
24 ± 1.4% | 0.57 ± 0.031 |  | O=C(/C=C/c1ccc(C(F)(F)F)cc1)/C=C/c1ccc(C(F)(F)F)cc1 [Compound 1f, (1E,4E)-1,5-bis(4-(trifluoromethyl)phenyl)-1,4-pentadien-3-one] | 32 ± 1.4% | 26 ± 0.9% | 13 ± 0.8%
 | 0.47 ± 0.036 | 40 µM | CC(=O)N1N=C(/C=C/c2ccc(N(C)C)cc2)CC1c1ccc(N(C)C)cc1 (stereo not shown) [Compound 6e, (E)-5-(4-dimethylaminophenyl)-3-(4-dimethylaminostyryl)-4,5-dihydro-1-H-pyrazol-1-ethan-1-one] | 56 ± 0.3% | 12 ± 1% | 7 ± 0.5%
 | 1.46 ± 0.049 | 30 µM | Brc1ccc(/C=C/C2=NN(c3ccc(Br)cc3)C(c3ccc(Br)cc3)C2)cc1 (stereo not shown) [Compound 3c] | 40 ± 1.8% | 24 ± 0.9% | 2 ± 0.1%
24 ± 1.9% | 0.78 ± 0.065 |  | Fc1ccc(/C=C/C2=NN(c3ccccc3)C(c3ccc(F)cc3)C2)cc1 (stereo not shown) [Compound 2b] | 39 ± 0.3% | 15 ± 0.6% | 2 ± 0.1%
28 ± 0.6% | 0.65 ± 0.034 |  | O=C(/C=C/c1ccc(Br)cc1)/C=C/c1ccc(Br)cc1 [Compound 1c, (1E,4E)-1,5-bis(4-bromophenyl)-1,4-pentadien-3-oneone] | 61 ± 0.5% | 44 ± 1.6% | 
38 ± 2.6% | 1.47 ± 0.044 |  | FC(F)(F)c1ccc(/C=C/C2=NN(c3ccc(Br)cc3)C(c3ccc(C(F)(F)F)cc3)C2)cc1 (stereo not shown) [Compound 3f] | 75 ± 2.7% | 14 ± 1.2% | 5 ± 0.4%
